Results as given in ChEMBL document CHEMBL5303573, “Mapping human microbiome drug metabolism by gut bacteria and their genes” (Nature, 2019).

Key:
[1] = The drug is tested on Blautia luti strain: DSM14534 for biotransformation. The drug concentrations were measured before and after a 12-h incubation by liquid-chromatography-coupled mass spectrometry (LC–MS); format: ADME; design: dose 2 uM, timepoint 0 vs 12 hours; conditions: 2 µM
[2] = The drug is tested on Bacteroides vulgatus strain: ATCC8482 for biotransformation. The drug concentrations were measured before and after a 12-h incubation by liquid-chromatography-coupled mass spectrometry (LC–MS); conditions: phocaeicola vulgatus, 2 µM
[3] = bacteroides eggerthii, 12 h, 2 µM
Description: The drug is tested on Bacteroides eggerthii strain: DSM20697 for biotransformation. The drug concentrations were measured before and after a 12-h incubation by liquid-chromatography-coupled mass spectrometry (LC–MS)

[4] = The drug is tested on Clostridium ramosum strain: DSM1402 for biotransformation. The drug concentrations were measured before and after a 12-h incubation by liquid-chromatography-coupled mass spectrometry (LC–MS); conditions: thomasclavelia ramosa, 2 µM
[5] = The drug is tested on Bifidobacterium breve strain: DSM20213 for biotransformation. The drug concentrations were measured before and after a 12-h incubation by liquid-chromatography-coupled mass spectrometry (LC–MS); conditions: 2 µM
[6] = parabacteroides johnsonii, 12 h, 2 µM
Description: The drug is tested on Parabacteroides johnsonii strain: DSM18315 for biotransformation. The drug concentrations were measured before and after a 12-h incubation by liquid-chromatography-coupled mass spectrometry (LC–MS)

[7] = bacteroides fragilis, 12 h, 2 µM
Description: The drug is tested on Bacteroides fragilis strain: NCTC 9343 for biotransformation. The drug concentrations were measured before and after a 12-h incubation by liquid-chromatography-coupled mass spectrometry (LC–MS)

[8] = bacteroides fragilis, 12 h, 2 µM; remark: listed apart in the source
Description: The drug is tested on Bacteroides fragilis strain: DS-208 for biotransformation. The drug concentrations were measured before and after a 12-h incubation by liquid-chromatography-coupled mass spectrometry (LC–MS)

[9] = The drug is tested on Bacteroides caccae strain: ATCC43185 for biotransformation. The drug concentrations were measured before and after a 12-h incubation by liquid-chromatography-coupled mass spectrometry (LC–MS); conditions: 2 µM
[10] = akkermansia muciniphila, 12 h, 2 µM
Description: The drug is tested on Akkermansia muciniphila strain: ATCC BAA-835 for biotransformation. The drug concentrations were measured before and after a 12-h incubation by liquid-chromatography-coupled mass spectrometry (LC–MS)

[11] = bacteroides stercoris, 12 h, 2 µM
Description: The drug is tested on Bacteroides stercoris strain: ATCC43183 for biotransformation. The drug concentrations were measured before and after a 12-h incubation by liquid-chromatography-coupled mass spectrometry (LC–MS)

[12] = The drug is tested on Bacteroides sp. WH2 strain: WH2 for biotransformation. The drug concentrations were measured before and after a 12-h incubation by liquid-chromatography-coupled mass spectrometry (LC–MS); conditions: bacteroides sp. wh2, 12 h, 2 µM
[13] = The drug is tested on Providencia rettgeri strain: DSM1131 for biotransformation. The drug concentrations were measured before and after a 12-h incubation by liquid-chromatography-coupled mass spectrometry (LC–MS); format: ADME; design: dose 2 uM, timepoint 0 vs 12 hours; conditions: 2 µM
[14] = The drug is tested on Edwardsiella tarda strain: ATCC23685 for biotransformation. The drug concentrations were measured before and after a 12-h incubation by liquid-chromatography-coupled mass spectrometry (LC–MS); conditions: 2 µM
[15] = The drug is tested on Parabacteroides merdae strain: ATCC43184 for biotransformation. The drug concentrations were measured before and after a 12-h incubation by liquid-chromatography-coupled mass spectrometry (LC–MS); conditions: 2 µM
[16] = The drug is tested on Clostridium symbiosum strain: ATCC14940 for biotransformation. The drug concentrations were measured before and after a 12-h incubation by liquid-chromatography-coupled mass spectrometry (LC–MS); conditions: 2 µM
[17] = The drug is tested on Bifidobacterium ruminantium strain: fecal isolate for biotransformation. The drug concentrations were measured before and after a 12-h incubation by liquid-chromatography-coupled mass spectrometry (LC–MS); conditions: 2 µM
[18] = limosilactobacillus reuteri cf48-3a, 12 h, 2 µM
Description: The drug is tested on Lactobacillus reuteri CF48-3A strain: BEI HM-102 for biotransformation. The drug concentrations were measured before and after a 12-h incubation by liquid-chromatography-coupled mass spectrometry (LC–MS)

[19] = The drug is tested on Clostridium sporogenes strain: ATCC15579 for biotransformation. The drug concentrations were measured before and after a 12-h incubation by liquid-chromatography-coupled mass spectrometry (LC–MS); conditions: 2 µM
[20] = The drug is tested on Bacteroides uniformis strain: ATCC8492 for biotransformation. The drug concentrations were measured before and after a 12-h incubation by liquid-chromatography-coupled mass spectrometry (LC–MS); conditions: 2 µM

| Bacterial Biotransformation [1] | Bacterial Biotransformation [2] | Bacterial Biotransformation [3] | Bacterial Biotransformation [4] | Bacterial Biotransformation [5] | Bacterial Biotransformation [6] | Bacterial Biotransformation [7] | Bacterial Biotransformation [8] | Bacterial Biotransformation [9] | Bacterial Biotransformation [10] | Bacterial Biotransformation [11] | Bacterial Biotransformation [12] | Bacterial Biotransformation [13] | Bacterial Biotransformation [14] | Bacterial Biotransformation [15] | Bacterial Biotransformation [16] | Bacterial Biotransformation [17] | Bacterial Biotransformation [18] | Bacterial Biotransformation [19] | Bacterial Biotransformation [20] | Compound |
| --- | --- | --- | --- | --- | --- | --- | --- | --- | --- | --- | --- | --- | --- | --- | --- | --- | --- | --- | --- | --- |
| Compound NOT metabolized | Compound metabolized | Compound NOT metabolized | Compound NOT metabolized | Compound NOT metabolized | Compound metabolized | Compound metabolized | Compound metabolized | Compound metabolized | Compound NOT metabolized | Compound metabolized | Compound metabolized | Compound NOT metabolized | Compound NOT metabolized | Compound metabolized | Compound NOT metabolized | Compound NOT metabolized | Compound NOT metabolized | Compound metabolized | Compound metabolized | C#C[C@]1(O)CC[C@H]2[C@@H]3CCC4=CC(=O)CC[C@@H]4[C@H]3CC[C@@]21CC [LEVONORGESTREL] |
| Compound NOT metabolized | Compound NOT metabolized | Compound NOT metabolized | Compound NOT metabolized | Compound NOT metabolized | Compound NOT metabolized | Compound NOT metabolized | Compound NOT metabolized | Compound NOT metabolized | Compound NOT metabolized | Compound NOT metabolized | Compound NOT metabolized | Compound NOT metabolized | Compound NOT metabolized | Compound NOT metabolized | Compound NOT metabolized | Compound NOT metabolized | Compound NOT metabolized | Compound NOT metabolized | Compound NOT metabolized | COc1ccccc1OCC(O)COC(N)=O (stereo not given) [METHOCARBAMOL] |
| Compound metabolized | Compound metabolized | Compound metabolized | Compound NOT metabolized | Compound NOT metabolized | Compound metabolized | Compound metabolized | Compound metabolized | Compound metabolized | Compound metabolized | Compound metabolized | Compound metabolized | Compound NOT metabolized | Compound NOT metabolized | Compound metabolized | Compound metabolized | Compound NOT metabolized | Compound NOT metabolized | Compound metabolized | Compound metabolized | C#C[C@]1(OC(C)=O)CC[C@H]2[C@@H]3CCC4=CC(=O)CC[C@@H]4[C@H]3CC[C@@]21C [NORETHINDRONE ACETATE] |
